One test deals with Pasteurella multocida. Kind of test: Efficacy against Pasteurella multocida infections in mice when administered by injection. As to conditions: for responders at 5 mg/kg / responders at 2.5 mg/kg: Pasteurella multocida, ip, read-out: Survival ratio (mice surviving / mice tested) (converted). In kind it is in vivo, Female Swiss mice. On the procedure: The efficacy of the novel compounds against Pasteurella multocida infections in mice when administered by injection was studied.
Female Swiss mice weighing from 15 to about 20 g. were used. The test compound, 5.0 mg., was weighed out and dissolved in 0.5 ml. of dimethyl sulfoxide, and this solution was added to 9.5 ml. of sodium carboxymethylcellulose suspension. Groups of five mice each were injected intraperitoneally with 0.1 ml. each of the above-prepared test composition. This preparation gave a test rate of 2.5 mg. per kilo of body weight of mouse. The compounds were tested at 1.25, 2.5, or 5.0 per kilogram of body weight of mouse, and the test preparations for the rates of 1.25 and 5.0 mg./kg. were prepared in a similar manner. Immediately after receiving the test compound, the mice were challenged using log10 dilutions of 10^-^4, 10^-^5 and 10^-^6,of a 16 to 20-hour tryptose broth culture of Pasteurella multocida at 0.1 ml. per mouse subcutaneously. Similar groups of nontreated control mice were also challenged, the challenge being administered subcutaneously. The groups of mice were observed daily for mortality and the total mortality in treated groups compared with that which occurred in the nonmedicated control groups. Each test compound is identified by the number of the example describing its preparation.
In the chart, column 1 lists the test compound; column 2, the dosage of test compound in mg./kg. of mouse body weight; column 3, the dilution of the challenge organism; and column 4, the ratio of the number of mice surviving the test at each dosage and challenge dilution to the number of mice tested at each dosage and challenge dilution, called the survival ratio.

A further test deals with Aeromonas liquefaciens. The experiment in a line: In vitro activity against fish bacterial pathogen, standard tube dilution test (MIC). In kind it is cell-based. The note with it: Aeromonas hydrophila, read-out: minimum inhibitory concentration (MIC). On the procedure: (§1) The in vitro activity of certain of the novel compounds of this invention against two fish bacterial pathogens was determined using tryptose broth and the standard tube dilution test system. Doubling dilutions ranging from 100.0 to 0.78 mcg./ml. of each of the test compounds were prepared in 5 ml. amounts of tryptose broth. Each tube in the series was then inoculated with one drop from a 24-hour broth culture of either Pseudomonas sp. or a strain of Aeromonas liquefaciens. The tubes were incubated overnight at about 37° C., and the minimum inhibitory concentration (MIC) determined and recorded.
(§2) Column 1 lists the test compounds identified by their operating example number; column 2 lists the MIC for Pseudomonas sp.; and column 3 lists the MIC for Aeromonas liquefaciens.

In another test the test system is Pseudomonas sp. Described as above. In kind it is cell-based. The note with it: tryptose broth, overnight, about 37° C., read-out: minimum inhibitory concentration (MIC). On the procedure: as §1, §2
The next test concerns Treponema hyodysenteriae. The experiment in a line: In vitro activity against Treponema hyodysenteriae on blood agar plates (MIC). In kind it is cell-based. On the procedure: A number of representative compounds, namely, 5b, 8, and 15b, were tested for their in vitro activity against Treponema hyodysenteriae. The treponema were propagated on blood agar plates. Each plate which was prepared contained 20 ml. of trypticase soy agar (Baltimore Biological Laboratory [BBL]) with 5.0 g./l. of yeast extract (Difco) and 5 percent sterile defibrinated horse blood. The plates were sterile plastic 15 × 100 mm. petri plates. Incubation was carried out at 37° C. for 4 days under anaerobic conditions using the BBL Gas Pak system.
The concentrations of test compounds in this initial test were prepared in dilutions ranging from 2000 mcg./ml. to 7.8 mcg./ml. The test procedure was carried out in the following manner. Five ml. of a twenty-fold concentration in tryptose broth (Difco) of each filter-sterilized test compound dilution was mixed in a series of flasks containing 90 ml. of melted trypticase soy agar with yeast extract. Five ml. of horse blood was then added per flask. The contents of these flasks were then used to prepare a series of blood agar plates in doubling decreasing dilutions ranging from 100 mcg./ml. to 0.39 mcg./ml.
The treponema for inoculation of these plates were obtained by adding 3.0 ml. of sterile tryptose broth to the surface of a plate on which the treponema had been propagated. A sterile cotton-tipped swab was used to loosen the treponema from the agar. […] The inoculum was spread so that it covered the surface of each plate, a bent sterile plastic pipette being used for this purpose for each plate. The plates were incubated at about 36° C. for about 4 days and then examined for growth of the treponema. The minimum inhibitory concentration (MIC) of each test compound was the concentration that prevented growth of treponema.

Setting [1] is: 5.0 mg./kg. intraperitoneal, challenge dilution 10^-^4 subcutaneous.
Where [2] appears, read: 5.0 mg./kg. intraperitoneal, challenge dilution 10^-^5 subcutaneous.
Setting [3] is: 5.0 mg./kg. intraperitoneal, challenge dilution 10^-^6 subcutaneous.
Where [4] appears, read: 2.5 mg./kg. intraperitoneal, challenge dilution 10^-^4 subcutaneous.
The mark [5] stands for this setting: 2.5 mg./kg. intraperitoneal, challenge dilution 10^-^5 subcutaneous.
[6] abbreviates: 2.5 mg./kg. intraperitoneal, challenge dilution 10^-^6 subcutaneous.
Setting [7] is: Aeromonas liquefaciens, tryptose broth, overnight, about 37° C.

The structures appear in SMILES notation. Like-named read-outs stand apart in the source and are kept apart here.

On to `Cn1c([N+](=O)[O-])cnc1-c1nn(C)c2ncnc(N)c12` [Example 4, 4-Amino-1-methyl-3-(1-methyl-5-nitroimidazol-2-yl)-1H-pyrazolo-[3,4-d]pyrimidine], for which the “Survival ratio (mice surviving / mice tested)” value with Pasteurella multocida (setting [1]) is 4/10. Also, the responders at 5 mg/kg with Pasteurella multocida (setting [2]) and with Pasteurella multocida (setting [3]) was 50% each time.

Turning to `Cl.Cn1c([N+](=O)[O-])cnc1-c1nn(C)c2ncnc(N)c12` [Example 4a, 4-amino-1-methyl-3-(1-methyl-5-nitroimidazol-2-yl)-1H-pyrazolo[3,4-d]pyrimidine hydrochloride], the “Survival ratio (mice surviving / mice tested)” value in the test on Pasteurella multocida (setting [1]), with Pasteurella multocida (setting [2]) and in the test on Pasteurella multocida (setting [3]) was 7/10 each time.

In the case of `CCCn1cnc2c(c(-c3ncc([N+](=O)[O-])n3C)nn2C)c1=N` [Example 5, 4,5-Dihydro-4-imino-1-methyl-3-(1-methyl-5-nitroimidazol-2-yl)-5-propyl-1H-pyrazolo[3,4-d]pyrimidine], the responders at 5 mg/kg in the test on Pasteurella multocida (setting [1]) was 30%; in the test on Pasteurella multocida (setting [2]), 60%; in the test with Pasteurella multocida (setting [3]), 90%.

As to `CCCn1cnc2c(c(-c3ncc([N+](=O)[O-])n3C)nn2C)c1=N.O=[N+]([O-])O` [Example 5b, 4,5-Dihydro-4-imino-1-methyl-3-(1-methyl-5-nitroimidazol-2-yl)-5-propyl-1H-pyrazolo[3,4-d]pyrimidine mononitrate], the MIC in the test on Aeromonas liquefaciens is 25 µg/mL; in the test on Pseudomonas sp., 3.12 µg/mL; with Treponema hyodysenteriae (Brachyspira hyodysenteriae, 96 h, read-out: minimum inhibitory concentration (MIC)), not above 1.56 µg/mL. In addition, in the test with Treponema hyodysenteriae (doubling dilutions 100 mcg./ml. to 0.39 mcg./ml.), the “inhibition of growth of the treponema” value is “inhibited growth of the treponema at each of the levels tested”.

On to `Cn1c([N+](=O)[O-])cnc1-c1nn(C)c2ncnc(NCC(=O)O)c12` [Example 6, N-[1-Methyl-3-(1-methyl-5-nitroimidazol-2-yl)-1H-pyrazolo[3,4-d]pyrimidin-4-yl]glycine], for which the responders at 5 mg/kg with Pasteurella multocida (setting [1]), in the test with Pasteurella multocida (setting [2]) and with Pasteurella multocida (setting [3]) was 20% throughout.

Regarding `CCn1cnc2c(c(-c3ncc([N+](=O)[O-])n3C)nn2C)c1=N` [Example 7, 5-Ethyl-4,5-dihydro-4-imino-1-methyl-3-(1-methyl-5-nitroimidazol-2-yl)-1H-pyrazolo[3,4-d]pyrimidine], the figures for the responders at 2.5 mg/kg in the test on Pasteurella multocida (setting [4]), in the test on Pasteurella multocida (setting [5]) and in the test on Pasteurella multocida (setting [6]) were 20%, 40% and 60%, respectively. Moreover, the responders at 5 mg/kg in the test with Pasteurella multocida (setting [1]) is 40%; in the test with Pasteurella multocida (setting [2]), 70%; in the test with Pasteurella multocida (setting [3]), 100%.

Take `CCN(CC)CCn1cnc2c(c(-c3ncc([N+](=O)[O-])n3C)nn2C)c1=N` [Example 8a, 5-[2-(Diethylamino)ethyl]-4,5-dihydro-4-imino-1-methyl-3-(1-methyl-5-nitroimidazol-2-yl)-1H-pyrazolo[3,4-d]-pyrimidine]: the responders at 5 mg/kg in the test on Pasteurella multocida (setting [1]) was 40%; in the test on Pasteurella multocida (setting [2]) it was 20%; in the test on Pasteurella multocida (setting [3]), 100%.

As for `Cn1c([N+](=O)[O-])cnc1-c1nn(C)c2ncn(Cc3ccncc3)c(=N)c12` [Example 8d, 4,5-Dihydro-4-imino-1-methyl-3-(1-methyl-5-nitroimidazol-2-yl)-5-(4-pyridylmethyl)-1H-pyrazolo[3,4-d]pyrimidine], the responders at 5 mg/kg in the test with Pasteurella multocida (setting [1]), in the test with Pasteurella multocida (setting [2]) and with Pasteurella multocida (setting [3]) was 100% throughout.

In the case of `CN(C)CCn1cnc2c(c(-c3ncc([N+](=O)[O-])n3C)nn2C)c1=N.Cl.Cl` [Example 8g, 5-[2-(dimethylamino)-ethyl]-4,5-dihydro-4-imino-1-methyl-3-(1-methyl-5-nitroimidazol-2-yl)-1H-pyrazolo[3,4-d]pyrimidine dihydrochloride], the “Survival ratio (mice surviving / mice tested)” value is given as 2/10 in the test with Pasteurella multocida (setting [4]); 6/10 with Pasteurella multocida (setting [5]); 10/10 in the test with Pasteurella multocida (setting [6]); 7/10 with Pasteurella multocida (setting [1]); 9/10 in the test on Pasteurella multocida (setting [2]); 10/10 in the test on Pasteurella multocida (setting [3]).

For `Cn1c([N+](=O)[O-])cnc1-c1nn(C)c2ncn(Cc3ccncc3)c(=N)c12` [Example 8k, 4,5-dihydro-4-imino-1-methyl-3-(1-methyl-5-nitroimidazol-2-yl)-5-(4-pyridylmethyl)-1H-pyrazolo[3,4-d]pyrimidine diphosphate], the MIC is 50 µg/mL in the test on Aeromonas liquefaciens (setting [7]) and 0.78 µg/mL in the test on Pseudomonas sp..

As to `Cn1c([N+](=O)[O-])cnc1-c1nn(C)c2ncnc(NN)c12` [Example 9, 4-Hydrazino-1-methyl-3-(1-methyl-5-nitroimidazol-2-yl)-1H-pyrazolo[3,4-d]pyrimidine], the responders at 5 mg/kg in the test with Pasteurella multocida (setting [1]) is 100%; with Pasteurella multocida (setting [2]), 80%; with Pasteurella multocida (setting [3]) it was 90%.

`Cn1c([N+](=O)[O-])cnc1-c1nn(C)c2ncnc(NN)c12.O=P(O)(O)O` [Example 9a, 4-hydrazino-1-methyl-3-(1-methyl-5-nitroimidazol-2-yl)-1H-pyrazolo[3,4-d]-pyrimidine monophosphate]: the MIC turned out to be 25 µg/mL in the test with Aeromonas liquefaciens (setting [7]) and 0.78 µg/mL with Pseudomonas sp..

As to `CC(=O)Nc1ncnc2c1c(-c1ncc([N+](=O)[O-])n1C)nn2C` [Example 11, N-[1-Methyl-3-(1-methyl-5-nitroimidazol-2-yl)-1H-pyrazolo[3,4-d]-pyrimidin-4-yl]acetamide], the responders at 5 mg/kg in the test with Pasteurella multocida (setting [1]) was 0%; in the test on Pasteurella multocida (setting [2]), 0%; in the test with Pasteurella multocida (setting [3]) it was 20%.

Consider `Cn1c([N+](=O)[O-])cnc1-c1nn(C)c2nc(C(F)(F)F)[nH]c(=O)c12` [Example 12, 1,5-Dihydro-1-methyl-3-(1-methyl-5-nitroimidazol-2-yl)-6-(trifluoromethyl)-4H-pyrazolo[3,4-d]pyrimidin-4-one], for which the responders at 5 mg/kg with Pasteurella multocida (setting [1]) is 20%; in the test with Pasteurella multocida (setting [2]), 20%; with Pasteurella multocida (setting [3]) it was 0%.

For the compound `CCOC(Cn1cnc2c(c(-c3ncc([N+](=O)[O-])n3C)nn2C)c1=N)OCC` [Example 14, 4-Imino-1-methyl-3-(1-methyl-5-nitroimidazol-2-yl)-1H-pyrazolo-[3,4-d]pyrimidine-5(4H)-acetaldehyde, diethyl acetal], the responders at 5 mg/kg in the test with Pasteurella multocida (setting [1]) was 0%; in the test on Pasteurella multocida (setting [2]), 20%; in the test on Pasteurella multocida (setting [3]), 40%.

The values are drawn from patent publication US4001230A, “3-(5-Nitroimidazol-2-yl)pyrazolo[3,4-d]pyrimidine compounds” (Eli Lilly and Company, priority 1975, dated 1977).
